From patent US20090170878A1, “MACROCYCLIC COMPOUNDS USEFUL AS BACE INHIBITORS” (priority 2006, published 2009)

Molecular target: T1, Human BACE (Homo sapiens, UniProt P56817)
T1 construct: Recombinant BACE (extracellular domain, expressed in baculovirus and purified using standard methods); made in house; host or cells: baculovirus expression system (insect cells)
Experiment: Test 1: Inhibition of Human BACE
Format: biochemical
Conditions: recombinant BACE extracellular domain, fluorescence-quenched APP-derived peptide substrate, pH 4.5
Method: Test 1: Inhibition of Human BACE
Recombinant BACE (extracellular domain, expressed in baculovirus and purified using standard methods) at 0.1 to 10 nM concentrations is incubated with the test compound at various concentrations for 1 hour at room temperature in 10 to 100 mM acetate buffer, pH 4.5, containing 0.1% CHAPS. Synthetic fluorescence-quenched peptide substrate, derived from the sequence of APP and containing a suitable fluorophore-quencher pair, is added to a final concentration of 1 to 5 μM, and the increase in fluorescence is recorded at a suitable excitation/emission wavelength in a microplate spectro-fluorimeter for 5 to 30 minutes in 1-minute intervals. IC50 values are calculated from percentage of inhibition of BACE-activity as a function of the test compound concentration.

T1 sequence (P56817 46-457 limits assumed): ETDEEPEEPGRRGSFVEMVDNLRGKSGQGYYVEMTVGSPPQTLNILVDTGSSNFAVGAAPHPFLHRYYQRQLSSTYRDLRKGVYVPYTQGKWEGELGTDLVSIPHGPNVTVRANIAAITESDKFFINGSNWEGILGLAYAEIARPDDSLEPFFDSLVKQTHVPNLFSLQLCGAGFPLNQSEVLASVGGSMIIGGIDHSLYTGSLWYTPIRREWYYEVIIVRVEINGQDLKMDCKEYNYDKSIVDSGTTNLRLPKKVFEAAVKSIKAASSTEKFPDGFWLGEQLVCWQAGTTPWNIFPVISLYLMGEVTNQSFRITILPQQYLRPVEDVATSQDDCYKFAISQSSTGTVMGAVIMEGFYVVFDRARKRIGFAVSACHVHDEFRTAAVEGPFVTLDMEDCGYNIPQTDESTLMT

IC50: 30 nM
Structure (SMILES): CC(C)c1cccc(C2(NC[C@@H](O)[C@@H]3C[C@H](C)CCCCCCCCC(=O)N(C)[C@@H](C)C(=O)N3)CC2)c1 [Example 1, (3S,14R,16S)-16-{(R)-1-Hydroxy-2-[1-(3-isopropyl-phenyl)-cyclopropylamino]-ethyl}-3,4,14-trimethyl-1,4-diaza-cyclohexadecane-2,5-dione]
